From US5597823A, “Tricyclic substituted hexahydrobenz [e]isoindole alpha-1 adrenergic antagonists” (priority 1995, dated 1997)
Where a name gives a salt, the structure may show the parent alone.

The compounds below were run against T1, α-1A adrenoceptor (dog prostate) (Canis lupus, UniProt A0A8I3NK63) (assay: Functional antagonism: phenylephrine (PE)-induced contraction of canine prostate strips). Conditions: Table 2b; vs phenylephrine; Schild plot.
T1 sequence (A0A8I3NK63 1-466): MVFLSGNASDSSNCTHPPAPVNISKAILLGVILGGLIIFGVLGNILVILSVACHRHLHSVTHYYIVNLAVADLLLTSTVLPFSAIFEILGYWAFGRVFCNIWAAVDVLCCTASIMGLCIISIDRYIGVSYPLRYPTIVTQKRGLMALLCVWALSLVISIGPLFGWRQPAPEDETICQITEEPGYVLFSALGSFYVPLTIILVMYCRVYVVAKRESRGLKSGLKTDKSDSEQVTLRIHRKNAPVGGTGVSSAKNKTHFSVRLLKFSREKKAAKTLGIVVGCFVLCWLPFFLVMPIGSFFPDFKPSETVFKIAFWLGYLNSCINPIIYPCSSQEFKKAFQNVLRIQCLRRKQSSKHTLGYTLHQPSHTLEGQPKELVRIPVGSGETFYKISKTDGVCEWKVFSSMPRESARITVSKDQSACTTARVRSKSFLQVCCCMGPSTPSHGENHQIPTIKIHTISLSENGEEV
Type: cell-based
From the text: Functional assays indicative of pharmacologically defined α-1 adrenoceptors were used to further characterize compounds. Inhibition of phenylephrine (PE)-induced contraction of canine prostate smooth muscle can be correlated with α-1A adrenoceptor activation. […] For each of these models, agonist dose response curves were repeated against increasing concentrations of test agent to derive a Schild plot [log ([…]) against log (molarity of test agent)] to determine the pA2.
Canine prostate strips were used in vitro as previously described (Hieble, J. P., Boyce, A. J. and Caine, M., Fed. Proc., 45:2609-2614 (1986)), to determine antagonist potencies against phenylephrine-induced contractions.
In the case of COc1cccc2c1CC[C@H]1CN(CCn3c(C)nc4c(sc5ccccc54)c3=O)C[C@@H]21 (relative stereo) [Example 29, dihydrochloride], the “pA2 Dog Prostate [α-1A]” value is reported as 7.43.
In the case of COc1cccc2c1CC[C@H]1CN(CCn3c(-c4ccccc4)nc4c(sc5ccccc54)c3=O)C[C@@H]21 (relative stereo) [Example 30, 3-[2-(cis-6-Methoxy-2 3 3a,4,5,9b-hexahydro-[1H]-benz[e]isoindol-1-yl)ethyl]-2-phenyl-[1]benzothieno[3,2-d]-4(1H,3H)-one hydrochloride], the “pA2 Dog Prostate [α-1A]” value is reported as 7.06.
With O=c1[nH]c2c(sc3ncccc32)c(=O)n1CCN1C[C@@H]2CCc3c(ccc4c3OCO4)[C@@H]2C1 (relative stereo) [Example 111, hydrochloride] the “pA2 Dog Prostate [α-1A]” value was 8.00.
With COc1cccc2c1[C@H]1CN(CCn3c(=O)[nH]c4c(sc5ccccc54)c3=O)C[C@H]1CC2 [Example 19, hydrochloride] the “pA2 Dog Prostate [α-1A]” value was 6.66.
With COc1cccc2c1[C@@H]1CN(CCn3c(=O)[nH]c4c([nH]c5ccccc54)c3=O)C[C@@H]1CC2 [Example 24, hydrochloride] the “pA2 Dog Prostate [α-1A]” value was 8.6.
With COc1cccc2c1CC[C@H]1CN(CCn3c(=O)[nH]c4c(sc5cc(C(F)(F)F)ccc54)c3=O)C[C@@H]21 [Example 32, 3-[2-((3aR,9bR)-cis76-Methoxy-2,3,3a,4,5,9b-hexahydro-[1-benz[e]isoindol-1-yl)ethyl]-7-trifluoromethyl[1]benzothieno[23-d]pyrimidine-2,4(1H,3H)-dione hydrochloride] the “pA2 Dog Prostate [α-1A]” value was 7.46.
In the case of COc1cccc2c1CC[C@H]1CN(CCn3c(=O)c4sc5ccccc5c4n(C)c3=O)C[C@@H]21 [Example 33, hydrochloride], the “pA2 Dog Prostate [α-1A]” value is reported as 6.56.
COc1cccc2c1CC[C@H]1CN(CCn3cnc4c(sc5ncccc54)c3=O)C[C@@H]21 [Example 34, 3-[2-((3aR,9bR)-cis-6-Methoxy-2,3,3a,4,5,9b-hexahydro-[1H]-benz[e]isoindol-1-yl)ethyl]-pyrido[3',2':4,51thieno[3,2:d]pyrimidine-4(3H)-one dihydrochloride] was tested, and the “pA2 Dog Prostate [α-1A]” value was 9.15.
For COc1cccc2c1CC[C@H]1CN(CCn3c(=O)[nH]c4c(sc5cccnc54)c3=O)C[C@@H]21 [Example 37, dihydrochloride], the “pA2 Dog Prostate [α-1A]” value was 9.15.
COc1cccc2c1CC[C@H]1CN(CCn3c(=O)[nH]c4c(sc5ccncc54)c3=O)C[C@@H]21 [Example 38, 3-[2-((3aR,9bR)-cis-6-Methoxy-2,3,3a,4,5,9b-hexahydro-[1H]-benz[e]isoindol-1-yl)ethyl]1-pyrido[3',4':4,5]thieno[3,2-d]pyrimidine-2,4(1H,3H)-dione dihydrochloride] was tested, and the “pA2 Dog Prostate [α-1A]” value was 9.75.
With COc1cccc2c1CC[C@H]1CN(CCn3c(=O)[nH]c4c(sc5ncncc54)c3=O)C[C@@H]21 [Example 40, 3-[2-(cis-(3aR,9bR)-6-Methoxy-2,3,3a,4,5,9b-hexahydro-[1H]-benz[e]isoindol-1-yl)ethyl]-thieno[2,3-d:4,5]dipyrimidine-2,4(1H,3H)-dione] the “pA2 Dog Prostate [α-1A]” value was 9.72.
In the case of COc1cccc2c1CC[C@H]1CN(CCn3c(=O)[nH]c4c(sc5cncnc54)c3=O)C[C@@H]21 [Example 41], the “pA2 Dog Prostate [α-1A]” value is reported as 9.03.
In the case of COc1cccc2c1CC[C@H]1CN(CCn3c(=O)[nH]c4c(sc5cc(C#N)ccc54)c3=O)C[C@@H]21 [Example 42, 3-[2-((3aR,9bR)-cis-6-Methoxy-2,3,3a,4,5,9b-hexahydro-[1H]-benz[e]isoindol-1-yl)ethyl]-[1]-7-cyano-benzothieno[3,2-d]pyrimidine-2,4(1H,3H)-dione hydrochloride], the “pA2 Dog Prostate [α-1A]” value is reported as 9.09.
For COc1cccc2c1CC[C@H]1CN(CCn3c(=O)[nH]c4c(sc5ccc(C#N)cc54)c3=O)C[C@@H]21 [Example 43, 3-[2-((3aR,9bR)-cis-6-Methoxy-2,3,3a,4,5,9b-hexahydro-[1H]-benz[e]isoindol-1-yl)ethyl]-[1]-8-cyano-benzothieno[3,2-d]pyrimidine-2,4(1H,3H)-dione hydrochloride], the “pA2 Dog Prostate [α-1A]” value was 8.44.
For COC(=O)c1ccc2sc3c(=O)n(CCN4C[C@@H]5CCc6c(OC)cccc6[C@@H]5C4)c(=O)[nH]c3c2c1 [Example 44, 3-[2-((3aR,9bR)-cis-6-Methoxy-2,3,3a,4,5,9b-hexahydro-[1H]-benz[e]isoindol-1-yl)ethyl]-[1]-8-carbomethoxy-benzothieno[3,2-d]pyrimidine-2,4(1H,3H)-dione hydrochloride], the “pA2 Dog Prostate [α-1A]” value was 8.09.
In the case of COc1cccc2c1CC[C@H]1CN(CCn3c(=O)[nH]c4c(sc5ccc(C(=O)N(C)C)cc54)c3=O)C[C@@H]21 [Example 45, hydrochloride], the “pA2 Dog Prostate [α-1A]” value is reported as 9.48.
With COc1cccc2c1CC[C@H]1CN(CCn3c(=O)[nH]c4c(sc5ccc(C(N)=O)cc54)c3=O)C[C@@H]21 [Example 46, 3-[2-((3aR,9bR)-cis-6-Methoxy-2,3,3a.4,5,9b-hexahydro-[1H]-benz[e]isoindol-1-yl)ethyl]-[1]-8-carboxamido-benzothieno[3,2-d]pyrimidine-2,4(1H,3H)-dionehydrochloride] the “pA2 Dog Prostate [α-1A]” value was 9.61.
In the case of COc1cccc2c1CC[C@H]1CN(CCn3c(=O)[nH]c4c(sc5cc([N+](=O)[O-])ccc54)c3=O)C[C@@H]21 [Example 47, 3-[2-((3aR,9bR)-cis-6-Methoxy-2,3,3a.4,5,9b-hexahydro-[1H]-benz[e]isoindol-1-yl)ethyl]-[1]-7-nitro-benzothieno[3,2-d]pyrimidine-2,4(1H,3H)-dione hydrochloride], the “pA2 Dog Prostate [α-1A]” value is reported as 8.7.
COc1cccc2c1CC[C@H]1CN(CCn3c(=O)[nH]c4c(sc5ccc([N+](=O)[O-])cc54)c3=O)C[C@@H]21 [Example 48, 3-[2-((3aR,9bR)-cis-6-Methoxy-2,3,3a,4,5,9b-hexahydro-[1H]-benz[e]isoindol-1-yl)ethyl]-[1]-8-nitro-benzothieno[3,2-d]pyrimidine-2,4(1H,3H)-dione hydrochloride] was tested, and the “pA2 Dog Prostate [α-1A]” value was 8.32.
In the case of COc1cccc2c1CC[C@H]1CN(CCn3c(=O)[nH]c4c(sc5ccc(NC(C)=O)cc54)c3=O)C[C@@H]21 [Example 49, 3-[2-((3aR,9bR)-cis-6-Methoxy-2,3,3a,4,5,9b-hexahydro-[1H]-benz[e]isoindol-1-yl)ethyl]-[1]-8-acetamido-benzothieno[3,2-d]pyrimidine-2,4(1H,3H)-dione hydrochloride], the “pA2 Dog Prostate [α-1A]” value is reported as 7.84.
In the case of COc1cccc2c1CC[C@H]1CN(CCn3c(=O)[nH]c4c(sc5ccc(N(C)C)cc54)c3=O)C[C@@H]21 [Example 50, 3-[2-((3aR,9bR)-cis-6-Methoxy-2,3,3a,4,5,9b-hexahydro-[1H]-benz[e]isoindol-1-yl)ethyl]-[1]-8-N,N-dimethylamino-benzothieno[3,2-d]pyrimidine-2,4(1H,3H)-dione hydrochloride], the “pA2 Dog Prostate [α-1A]” value is reported as 7.24.
In the case of COc1cccc2c1CC[C@H]1CN(CCn3c(=O)[nH]c4cc5[nH]cnc5cc4c3=O)C[C@@H]21 [Example 53, 7-[2-((3aR,9bR)cis-6-Methoxy-2,3,3a,4,5,9b-hexahydro,[1H]-benz[e]isoindol-1-yl)ethyl]-imidazo[4,5-g]quinazoline-6,8(1H,5H)-dione hydrochloride], the “pA2 Dog Prostate [α-1A]” value is reported as 9.25.

Same assay, conditions: Table 2b; vs phenylephrine; Schild plot; hydrochloride
For COc1cccc2c1CC[C@H]1CN(CCn3c(=O)[nH]c4c(sc5cccc(C)c54)c3=O)C[C@@H]21 [Example 35, 3-2-((3aR,9bR)-cis-6-Methoxy-2,3,3a,4,5,9b-hexahydro-[1H]-benz[e]isoindol-1-yl)ethyl]-9-methyl[1]benzothieno[3,2-d]pyrimidine-2,4(1H,3H)-dione hydrochloride], the “pA2 Dog Prostate [α-1A]” value was 8.74.
